Experimental findings from BindingDB's records for doi:10.1124/mol.52.3.337 (The Schering Plough Research Institute, 1997) are described below.

Non-standard residues stand in square brackets, D forms with d. Residues, ends and D or L forms follow the SMILES beside them.

In this test the target is T1, Galanin receptor type 2 (Rattus norvegicus, UniProt O08726).
T1 sequence (O08726 whole entry): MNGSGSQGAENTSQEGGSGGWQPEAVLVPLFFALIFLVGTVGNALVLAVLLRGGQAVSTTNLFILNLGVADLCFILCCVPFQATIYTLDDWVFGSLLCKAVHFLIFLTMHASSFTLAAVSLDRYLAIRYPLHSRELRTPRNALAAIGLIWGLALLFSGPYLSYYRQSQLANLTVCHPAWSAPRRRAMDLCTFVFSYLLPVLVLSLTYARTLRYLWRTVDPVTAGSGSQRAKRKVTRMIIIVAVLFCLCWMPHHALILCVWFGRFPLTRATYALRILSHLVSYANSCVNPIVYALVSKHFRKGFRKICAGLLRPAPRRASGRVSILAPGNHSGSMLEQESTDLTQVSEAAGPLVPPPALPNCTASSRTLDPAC
As for `CC(C)C[C@H](NC(=O)[C@H](CC(C)C)NC(=O)[C@@H](Cc1c[nH]c2ccccc12)NC(=O)[C@H](Cc1ccccc1)NC(=O)[C@@H](Cc1c[nH]c2ccccc12)NC(=O)[C@H](CCC(N)=O)NC(=O)[C@H](CCC(N)=O)NC(=O)[C@@H]1CCCN1C(=O)[C@H](CCCCN)NC(=O)[C@@H]1CCCN1C(=O)[C@@H](CCCNC(=N)N)NC(=O)[C@@H]1CCCN1C(=O)CNC(=O)[C@H](CC(C)C)NC(=O)[C@H](CC(C)C)NC(=O)[C@H](Cc1ccc(O)cc1)NC(=O)CNC(=O)[C@H](C)NC(=O)[C@H](CO)NC(=O)[C@H](CC(N)=O)NC(=O)[C@H](CC(C)C)NC(=O)[C@@H](NC(=O)[C@H](Cc1c[nH]c2ccccc12)NC(=O)CN)[C@@H](C)O)C(N)=O` [Gal(1-13)-Std I] (H-GWTLNSAGYLLGP[dR]PKPQQ[dW]F[dW]LL-NH2), the inhibitory constant (Ki) (commonly a measure of affinity in units of concentration, obtained from inhibition or displacement) turned out to be 9.1 nM.

In turn, “H-ELEPEDEARPGGFDRLQSQDKAIRTIMEFLAFLHLKEAGAL-NH2 [GMAP (1-41)]” had a Ki of 840 nM.

H-GWTLNSAGYLLGPPPALALA-NH2 [M40] came in with an inhibitory constant (Ki) of 18 nM. This Ki is about 47-fold lower than that of the molecule before.
